Counter-ions that a name gives are not always drawn.
Columns and labels:
IKZF1 = IKZF1 (Homo sapiens, UniProt Q13422+Q96SW2); assay: Prolabel quantification of IKZF1 protein levels in 293GT cells; type: cell-based; conditions: Prolabel assay, read-out: IKZF1 EC50
IKZF2 = IKZF2 (Homo sapiens, UniProt Q96SW2+Q9UKS7); assay: Prolabel quantification of IKZF2 protein levels in 293GT cells; type: cell-based; conditions: for inhibition at 10 µM: 24 h, read-out: IKZF2 % protein reduction at 10 μM, 24 h; for inhibition at 10 µM / DC50: 293GT cells; for DC50: Prolabel assay, read-out: IKZF2 EC50
Sequence of IKZF2 (Q9UKS7 whole entry): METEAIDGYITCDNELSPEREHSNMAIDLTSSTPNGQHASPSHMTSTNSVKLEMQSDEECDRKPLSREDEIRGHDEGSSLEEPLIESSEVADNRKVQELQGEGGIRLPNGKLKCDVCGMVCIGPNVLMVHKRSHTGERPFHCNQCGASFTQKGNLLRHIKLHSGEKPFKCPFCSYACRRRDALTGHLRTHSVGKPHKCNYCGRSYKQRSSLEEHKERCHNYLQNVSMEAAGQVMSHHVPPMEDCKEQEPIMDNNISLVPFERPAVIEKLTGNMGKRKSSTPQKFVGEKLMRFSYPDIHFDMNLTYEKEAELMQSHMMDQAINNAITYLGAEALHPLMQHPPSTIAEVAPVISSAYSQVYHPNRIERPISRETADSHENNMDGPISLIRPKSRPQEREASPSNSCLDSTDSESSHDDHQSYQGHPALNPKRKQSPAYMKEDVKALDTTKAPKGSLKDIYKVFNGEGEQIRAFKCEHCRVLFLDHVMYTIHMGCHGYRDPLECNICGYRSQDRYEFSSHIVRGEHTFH
Sequence of IKZF2 (Q96SW2 whole entry): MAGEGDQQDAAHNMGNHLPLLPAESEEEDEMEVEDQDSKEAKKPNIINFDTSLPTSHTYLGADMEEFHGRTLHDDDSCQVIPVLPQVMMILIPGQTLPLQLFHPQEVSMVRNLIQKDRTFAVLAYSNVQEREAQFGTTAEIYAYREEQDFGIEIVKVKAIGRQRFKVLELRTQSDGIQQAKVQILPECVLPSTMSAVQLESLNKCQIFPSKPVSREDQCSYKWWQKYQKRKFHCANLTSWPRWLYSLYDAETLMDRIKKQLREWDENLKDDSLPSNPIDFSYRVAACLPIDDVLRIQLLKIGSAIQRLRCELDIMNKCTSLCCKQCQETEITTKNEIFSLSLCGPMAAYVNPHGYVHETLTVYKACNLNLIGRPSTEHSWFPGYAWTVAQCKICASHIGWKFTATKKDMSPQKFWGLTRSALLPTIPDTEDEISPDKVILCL
Sequence of IKZF2 (Q16531 whole entry partner): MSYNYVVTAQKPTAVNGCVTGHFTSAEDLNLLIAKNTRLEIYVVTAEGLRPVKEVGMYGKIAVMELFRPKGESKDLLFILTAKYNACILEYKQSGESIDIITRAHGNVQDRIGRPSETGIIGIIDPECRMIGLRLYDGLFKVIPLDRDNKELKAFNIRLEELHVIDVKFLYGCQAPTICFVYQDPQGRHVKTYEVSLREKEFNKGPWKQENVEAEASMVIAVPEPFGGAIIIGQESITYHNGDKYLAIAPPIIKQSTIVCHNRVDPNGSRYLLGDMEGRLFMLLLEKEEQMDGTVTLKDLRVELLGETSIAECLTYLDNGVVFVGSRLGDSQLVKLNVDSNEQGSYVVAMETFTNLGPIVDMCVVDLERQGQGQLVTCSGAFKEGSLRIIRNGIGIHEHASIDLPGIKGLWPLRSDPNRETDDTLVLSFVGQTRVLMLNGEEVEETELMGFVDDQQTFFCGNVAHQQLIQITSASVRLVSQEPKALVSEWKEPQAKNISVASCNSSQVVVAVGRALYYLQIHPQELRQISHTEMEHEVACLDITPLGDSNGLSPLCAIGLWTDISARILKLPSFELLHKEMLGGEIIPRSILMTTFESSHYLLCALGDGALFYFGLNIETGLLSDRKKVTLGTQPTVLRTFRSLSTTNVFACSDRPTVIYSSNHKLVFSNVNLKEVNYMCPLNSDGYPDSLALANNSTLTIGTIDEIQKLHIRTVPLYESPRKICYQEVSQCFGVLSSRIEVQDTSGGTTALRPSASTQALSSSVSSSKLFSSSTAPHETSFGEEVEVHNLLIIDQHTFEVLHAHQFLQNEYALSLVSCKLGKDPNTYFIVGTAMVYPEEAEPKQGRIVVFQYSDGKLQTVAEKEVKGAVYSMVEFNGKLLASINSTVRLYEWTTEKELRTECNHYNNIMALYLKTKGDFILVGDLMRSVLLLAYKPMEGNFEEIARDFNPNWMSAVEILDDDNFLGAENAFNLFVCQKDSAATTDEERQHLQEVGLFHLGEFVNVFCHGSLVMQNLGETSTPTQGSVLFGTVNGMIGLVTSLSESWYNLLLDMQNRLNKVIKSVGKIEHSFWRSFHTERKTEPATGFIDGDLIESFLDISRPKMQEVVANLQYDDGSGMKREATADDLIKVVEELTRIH

Sequence of IKZF1 (Q13422 whole entry): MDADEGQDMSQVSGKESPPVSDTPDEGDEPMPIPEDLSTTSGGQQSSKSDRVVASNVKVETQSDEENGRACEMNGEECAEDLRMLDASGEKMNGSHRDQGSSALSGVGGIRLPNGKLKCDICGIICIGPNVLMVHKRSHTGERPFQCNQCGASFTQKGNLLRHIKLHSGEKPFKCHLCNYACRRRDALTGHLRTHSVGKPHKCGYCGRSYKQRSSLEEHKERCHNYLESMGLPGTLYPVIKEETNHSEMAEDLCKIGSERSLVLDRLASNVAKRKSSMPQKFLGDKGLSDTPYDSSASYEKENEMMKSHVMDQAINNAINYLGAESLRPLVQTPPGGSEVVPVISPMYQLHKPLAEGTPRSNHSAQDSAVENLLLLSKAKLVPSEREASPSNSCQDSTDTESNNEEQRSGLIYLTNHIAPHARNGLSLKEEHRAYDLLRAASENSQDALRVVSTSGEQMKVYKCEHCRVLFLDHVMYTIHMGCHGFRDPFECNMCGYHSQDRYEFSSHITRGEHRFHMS
Sequence of IKZF1 (Q96SW2 whole entry): as the sequence (Q96SW2 whole entry) above
Sequence of IKZF1 (Q16531 whole entry partner): as the sequence (Q16531 whole entry partner) above

Row | SMILES | DC50 (IKZF1) | inhibition at 10 µM (IKZF2) | DC50 (IKZF2) | IKZF2 protein levels as compared to the control (DMSO) (IKZF2; Prolabel assay in HEK293GT cells, bar graph)
1 | O=C1CCC(N2Cc3cc(C4CCN(Cc5ncon5)CC4)ccc3C2=O)C(=O)N1 (stereo not shown) [Compound I-204, 3-(5-(1-((1,2,4-oxadiazol-3-yl)methyl)piperidin-4-yl)-1-oxoisoindolin-2-yl)piperidine-2,6-dione] | > 50 µM | 0% | > 50000 nM | –
2 | O=C1CCC(N2Cc3cc(C4CCN(Cc5ccc(OC(F)(F)F)cc5)CC4)ccc3C2=O)C(=O)N1 (stereo not shown) [Compound I-51, 3-(1-oxo-5-(1-(4-(trifluoromethoxy)benzyl)piperidin-4-yl)isoindolin-2-yl)piperidine-2,6-dione] | > 30 µM | 60% | 15 nM | –
3 | O=C1CCC(N2Cc3cc(C4CCN(Cc5cc[nH]c5)CC4)ccc3C2=O)C(=O)N1 (stereo not shown) [Compound I-119, 3-(5-(1-((1H-pyrrol-3-yl)methyl)piperidin-4-yl)-1-oxoisoindolin-2-yl)piperidine-2,6-dione] | > 30 µM | 65% | 140 nM | –
4 | O=C1CCC(N2Cc3cc(C4CCN(C(c5ccccc5)C(F)F)CC4)ccc3C2=O)C(=O)N1 (stereo not shown) [Compound I-209, 3-(5-(1-(2,2-difluoro-1-phenylethyl)piperidin-4-yl)-1-oxoisoindolin-2-yl)piperidine-2,6-dione] | > 30 µM | 40% | 140 nM | –
5 | O=C1CCC(N2Cc3cc(C4C[C@H]5CC[C@@H](C4)N5Cc4ccccc4)ccc3C2=O)C(=O)N1 (stereo partly shown) [Compound I-265, 3-(5-(8-benzyl-8-azabicyclo[3.2.1]octan-3-yl)-1-oxoisoindolin-2-yl)piperidine-2,6-dione HC(O)OH salt] | > 50 µM | 70% | 5 nM | –
6 | Cc1cn(C)c(CN2CCC(c3ccc4c(c3)CN(C3CCC(=O)NC3=O)C4=O)CC2)n1 (stereo not shown) [Compound I-129, 3-(5-(1-((1,4-dimethyl-1H-imidazol-2-yl)methyl)piperidin-4-yl)-1-oxoisoindolin-2-yl)piperidine-2,6-dione] | > 30 µM | 40% | 190 nM | –
7 | O=C1CCC(N2Cc3cc(C4CCN(C(CF)c5ccccc5)CC4)ccc3C2=O)C(=O)N1 (stereo not shown) [Compound I-212, 3-(5-(1-(2-fluoro-1-phenylethyl)piperidin-4-yl)-1-oxoisoindolin-2-yl)piperidine-2,6-dione] | > 30 µM | 60% | 49 nM | –
8 | O=C1CCC(N2Cc3cc(C4CCN(Cc5ccc(F)cc5F)CC4)ccc3C2=O)C(=O)N1 (stereo not shown) [Compound I-101, 3-(5-(1-(2,4-difluorobenzyl)piperidin-4-yl)-1-oxoisoindolin-2-yl)piperidine-2,6-dione] | > 30 µM | 60% | 17 nM | –
9 | Cc1ccc(CN2CCC(c3ccc4c(c3)CN(C3CCC(=O)NC3=O)C4=O)CC2)cc1F (stereo not shown) [Compound I-69, 3-(5-(1-(3-fluoro-4-methylbenzyl)piperidin-4-yl)-1-oxoisoindolin-2-yl)piperidine-2,6-dione] | > 30 µM | 80% | 15 nM | decreased
10 | O=C1CCC(N2Cc3cc(C4CCN(Cc5cccc6ccccc56)CC4)ccc3C2=O)C(=O)N1 (stereo not shown) [Compound I-49, 3-(5-(1-(naphthalen-1-ylmethyl)piperidin-4-yl)-1-oxoisoindolin-2-yl)piperidine-2,6-dione] | > 30 µM | 60% | 4 nM | –
11 | O=C1CCC(N2Cc3cc(C4CCN(Cc5ccccc5Cl)CC4)ccc3C2=O)C(=O)N1 (stereo not shown) [Compound I-18, 3-(5-(1-(2-chlorobenzyl)piperidin-4-yl)-1-oxoisoindolin-2-yl)piperidine-2,6-dione] | > 30 µM | 65% | 19 nM | –
12 | Cn1ccc(CN2CCC(c3ccc4c(c3)CN(C3CCC(=O)NC3=O)C4=O)CC2)n1 (stereo not shown) [Compound I-117, 3-(5-(1-((1-methyl-1H-pyrazol-3-yl)methyl)piperidin-4-yl)-1-oxoisoindolin-2-yl)piperidine-2,6-dione] | > 30 µM | 50% | 50 nM | –
13 | O=C1CCC(N2Cc3cc(C4CCN(Cc5cccc6c5OCCO6)CC4)ccc3C2=O)C(=O)N1 (stereo not shown) [Compound I-82, 3-(5-(1-((2,3-dihydrobenzo[b][1,4]dioxin-5-yl)methyl)piperidin-4-yl)-1-oxoisoindolin-2-yl)piperidine-2,6-dione] | > 30 µM | 60% | 4 nM | –
14 | O=C1CCC(N2Cc3cc(C4CCN(Cc5ccc6c(c5)CCCC6)CC4)ccc3C2=O)C(=O)N1 (stereo not shown) [Compound I-175, 3-(1-oxo-5-(1-((5,6,7,8-tetrahydronaphthalen-2-yl)methyl)piperidin-4-yl)isoindolin-2-yl)piperidine-2,6-dione] | > 50 µM | 50% | 5 nM | –

Second part, the compound after the results:

Row | DC50 (IKZF1) | inhibition at 10 µM (IKZF2) | DC50 (IKZF2) | IKZF2 protein levels as compared to the control (DMSO) (IKZF2; Prolabel assay in HEK293GT cells, bar graph) | SMILES
15 | > 30 µM | 20% | > 30000 nM | – | O=C1CCC(N2Cc3cc(C4CCN(Cc5ccccc5)C4)ccc3C2=O)C(=O)N1 (stereo not shown) [Compound I-260, 3-(5-(1-benzylpyrrolidin-3-yl)-1-oxoisoindolin-2-yl)piperidine-2,6-dione HC(O)OH Salt]
16 | > 30 µM | 50% | 120 nM | – | Nc1nc(C(F)(F)F)c(CN2CCC(c3ccc4c(c3)CN(C3CCC(=O)NC3=O)C4=O)CC2)s1 (stereo not shown) [Compound I-234, 3-(5-(1-((2-amino-4-(trifluoromethyl)thiazol-5-yl)methyl)piperidin-4-yl)-1-oxoisoindolin-2-yl)piperidine-2,6-dione]
17 | > 30 µM | 40% | 8 nM | – | N#Cc1cccc(CN2CCC(c3ccc4c(c3)CN(C3CCC(=O)NC3=O)C4=O)CC2)n1 (stereo not shown) [Compound I-217, 6-((4-(2-(2,6-dioxopiperidin-3-yl)-1-oxoisoindolin-5-yl)piperidin-1-yl)methyl)picolinonitrile]
18 | > 30 µM | 80% | 12 nM | – | O=C1CCC(N2Cc3cc(C4CCN(Cc5cnn(-c6ccccc6)c5)CC4)ccc3C2=O)C(=O)N1 (stereo not shown) [Compound I-288, 3-(1-oxo-5-(1-((1-phenyl-1H-pyrazol-4-yl)methyl)piperidin-4-yl)isoindolin-2-yl)piperidine-2,6-dione]
19 | > 30 µM | 40% | 2440 nM | – | NC(=O)c1nc(CN2CCC(c3ccc4c(c3)CN(C3CCC(=O)NC3=O)C4=O)CC2)no1 (stereo not shown) [Compound I-235, 3-((4-(2-(2,6-dioxopiperidin-3-yl)-1-oxoisoindolin-5-yl)piperidin-1-yl)methyl)-1,2,4-oxadiazole-5-carboxamide]
20 | > 50 µM | 0% | > 50000 nM | – | O=C1CCC(N2Cc3cc(C4CCN(C(c5ccccc5)C(F)(F)F)CC4)ccc3C2=O)C(=O)N1 (stereo not shown) [Compound I-224, 3-(1-oxo-5-(1-(2,2,2-trifluoro-1-phenylethyl)piperidin-4-yl)isoindolin-2-yl)piperidine-2,6-dione HC(O)OH salt]
21 | > 30 µM | 40% | 720 nM | – | O=C1CCC(N2Cc3cc(C4CCN(Cc5ccnn5-c5ccccc5)CC4)ccc3C2=O)C(=O)N1 (stereo not shown) [Compound I-286, 3-(1-oxo-5-(1-((1-phenyl-1H-pyrazol-5-yl)methyl)piperidin-4-yl)isoindolin-2-yl)piperidine-2,6-dione]
